# Results published in article PMC7395068, “The evolution of strategies to minimise the risk of human drug-induced liver injury (DILI) in drug discovery and development” (Archives of Toxicology, 2020).
# Like-named read-outs stand apart in the source and are kept apart here.
# Tests used:
# [1] = ref Chen 2011; cited from earlier work
# [2] = tested on: PHH; details: In vitro Assay; ref Albrecht 2019; cited from earlier work
# [3] = tested on: human hepatocytes; details: cited from earlier work; for Structural based (HCI): In vitro Assay, ref Xu 2008
# [4] = cited from earlier work
# [5] = tested on: primary human hepatocytes, NIH3T3 fibroblasts, BSEP, CYP3A4; details: cited from earlier work
# [6] = tested on: HepG2; design: method as in Albrecht 2019; details: In vitro Assay; ref Albrecht 2019; cited from earlier work
# [7] = cited from earlier work; remark: listed apart in the source
# [8] = tested on: THLE or HepG2 cells, isolated mitochondria, BSEP; details: cited from earlier work
# [9] = tested on: HepaRG spheroids
# Description: (§1) 3D spheroid models consisting of either primary human hepatocytes with non-parenchymal cells (hLiMT’s) or HepaRG cells (HepaRG spheroids) were assessed for size (MS), oxidative stress (OS), MMP, mitochondrial mass (MM), GSH and cellular ATP content following drug exposure. Fluorescent images are acquired using the confocal mode of an ArrayScan™ XTI HCI reader (ThermoScientific) following which cellular ATP was measured using 3D CellTiter-Glo (Promega).
# [10] = tested on: HepG2 cells; details: cited from earlier work
# [11] = tested on: PHH; details: cited from earlier work
# [12] = Plasma free fraction (fu) and unbound Cmax (Cmax,u); type: in vitro ADME, human; details: unbound plasma Cmax
# Description: The prediction of DILI severity was evaluated further using the 3D combined HCI assays using plasma-free fraction. The majority of fu values were obtained from literature, when unavailable in-house prediction was utilised. Unbound plasma Cmax concentrations (Cmax,u) were derived by multiplying total plasma Cmax with the corresponding free fraction (fu) for each compound.
# [13] = tested on: hLiMTs; assay: Combined HCI (HCS) and cellular ATP 3D assay in hLiMTs
# [14] = tested on: HepaRG spheroids; assay: Combined HCI (HCS) and cellular ATP 3D assay in HepaRG spheroids; details: HepaRG; for AC50 / minimal effective concentration: Homo sapiens
# Description: as §1
# [15] = tested on: HepG2 cells, primary human hepatocytes; details: In vitro Assay; ref Garside 2014; cited from earlier work
# [16] = tested on: PHH spheroids; details: cited from earlier work; for hLiMTs ATP <20 x Cmax: In vitro Assay, ref Vorrink 2018
# [17] = tested on: hLiMTs
# [18] = read-out: Human plasma Cmax; total plasma Cmax.tot, median of 9 literature references; cited from earlier work
# [19] = tested on: hLiMTs; details: cited from earlier work
# [20] = tested on: HepG2 cells; details: cited from earlier work; remark: listed apart in the source
# [21] = plasma free fraction; cited from earlier work
# [22] = tested on: rBsep; details: In vitro Assay; ref Dawson 2012; cited from earlier work
# [23] = tested on: THLE-Null and THLE-3A4 cells; details: In vitro Assay; ref Gustafsson 2014; cited from earlier work
# [24] = tested on: HepG2 C3A spheroid, BSEP, Glu/Gal in HepG2 cells, bioactivation; details: cited from earlier work
# [25] = tested on: isolated mouse liver mitochondria; details: In vitro Assay; ref Porceddu 2012; cited from earlier work
# [26] = In vitro Assay, ref Schadt 2015
# [27] = In vitro Assay, ref Persson 2013
# [28] = In vitro Assay, ref Proctor 2017
smiles,measurement,setting,value
Clc1cccc(Cl)c1N=C1NCCN1 [clonidine],DILI Score (FDA) (1-8),[1],3
same,Cytotoxicity PHH 48 hrs,[2],-VE
same,Structural based (HCI),[3],-VE
same,"DILI +VE (5-8), DILI -VE (-4)",[4]; ref Chen 2016,-VE
same,DILI severity category,[4]; ref Chen 2016,Ambiguous DILI-concern
same,Cellular toxicity (3T3 cells),[5]; [26],-VE
same,Combined Assay,[5]; [26],-VE
same,GSH adduct HML,[5]; [26],-VE
same,Hepatocyte cellular toxicity,[5]; [26],-VE
same,MitoTox 3T3,[5]; [26],-VE
same,TDI CYP3A4,[5]; [26],-VE
same,hBSEP inhibition,[5]; [26],-VE
same,Cytotoxicity HepG2 48 hrs,[6],-VE
same,In vivo DILI,[7]; ref Albrecht 2019,-VE
same,In vivo DILI,[7]; ref Schadt 2015,-VE
same,In vivo DILI,[7]; ref Xu 2008,+VE
same,Partition Hybrid HRM Score,"[8]; In vitro Assay, ref Aleo 2019",-VE
same,Ro2 Hybrid HRM Score,"[8]; In vitro Assay, ref Aleo 2019",-VE
O=C1CN(/N=C/c2ccc(-c3ccc([N+](=O)[O-])cc3)o2)C(O)=N1 [dantrolene],DILI Score (FDA) (1-8),[1],8
same,Structural based (HCI),[3],+VE
same,"DILI in vitro assay prediction, Xu (2008)","[3]; Structural based (HCI), human hepatocytes, ref Xu et al. 2008",+VE
same,DILI prediction HepaRG spheroids (HCS-MEC),[9],+VE (MEC < 25 × Cmax.tot cut-off)
same,DILI severity category (Chen et al. [2016]),"[4]; LTKB DILIrank category, ref Chen et al. 2016",Most
same,DILI severity category (Chen 2016),"[4]; human DILI classification, LTKB DILIrank, ref Chen et al. 2016",Most
same,DILI severity category,"[4]; human DILI severity, ref Chen et al.",Most
same,"DILI +VE (5-8), DILI -VE (-4)",[4]; ref Chen 2016,+VE
same,DILI severity category,[4]; ref Chen 2016,vMost-DILI-Concern
same,Cluser analysis,[10]; [27],-VE
same,Structural based (HCI),[10]; [27],+VE
same,"DILI in vitro assay prediction, Persson (2013)","[10]; Structural based (HCI), HepG2, ref Persson et al. 2013",-VE
same,"PHH/100uM, Proctor (2017)","[11]; 2D PHH, ATP, IC50 threshold 100 µM, ref Proctor et al. 2017",-VE
same,PHH ATP <100uM,[11]; [28],-VE
same,"Human plasma Cmax,u",[12],0.552 µM
same,Assigned DILI category,"[7]; Chen et al. 2016 or literature alignment, ref Chen et al. 2016",3
same,In vivo DILI,[7]; […],+VE
same,In vivo DILI,[7]; ref Garside 2014,+VE
same,In vivo DILI,[7]; ref O'Brien 2006,+VE
same,In vivo DILI,[7]; ref Persson 2013,+VE
same,In vivo DILI,[7]; ref Proctor 2017,+VE
same,In vivo DILI,[7]; ref Vorrink 2018,+VE
same,In vivo DILI,[7]; ref Williams 2019,+VE
same,In vivo DILI,[7]; ref Xu 2008,+VE
same,"DILI prediction hLiMTs, HCI alone","[13]; HCS endpoints only, 25 × Cmax.tot cut-off",detection
same,AC50,"[13]; Homo sapiens, read-out: HCS endpoint AC50",51 µM
same,minimal effective concentration,"[13]; Homo sapiens, read-out: HCS endpoint MEC",10.5 µM
same,"DILI prediction hLiMTs, ATP alone","[13]; cellular ATP only, 25 × Cmax.tot cut-off",unpredicted
same,hLiMTs <25x Avg Cmax ATP,"[13]; hLiMTs, ATP endpoint, cut-off <25x Avg Cmax",-ve
same,hLiMTs <100x Avg Cmaxu ATP,"[13]; hLiMTs, ATP endpoint, cut-off <100x Avg Cmaxu",-ve
same,hLiMTs <25x Avg Cmax HCS,"[13]; hLiMTs, HCS endpoints, cut-off <25x Avg Cmax",+ve
same,hLiMTs <100x Avg Cmaxu HCS,"[13]; hLiMTs, HCS endpoints, cut-off <100x Avg Cmaxu",+ve (<100x Avg Cmaxu)
same,hLiMTs <25x Avg Cmax All,"[13]; hLiMTs, all endpoints (ATP and HCS), cut-off <25x Avg Cmax",+ve
same,hLiMTs Cmax max All,"[13]; hLiMTs, all endpoints, Cmax max used",+ve
same,hLiMTs Cmax min All,"[13]; hLiMTs, all endpoints, Cmax min used",-ve
same,hLiMTs <10 uM All,"[13]; hLiMTs, all endpoints, cut-off <10 uM",-ve
same,hLiMTs <100x Avg Cmaxu All,"[13]; hLiMTs, all endpoints, cut-off <100x Avg Cmaxu",+ve (<100x Avg Cmaxu)
same,HepaRG <25x Avg Cmax ATP,"[14]; ATP endpoint, cut-off <25x Avg Cmax",+ve
same,HepaRG <100x Avg Cmaxu ATP,"[14]; ATP endpoint, cut-off <100x Avg Cmaxu",+ve (<100x Avg Cmaxu)
same,HepaRG <25x Avg Cmax HCS,"[14]; HCS endpoints, cut-off <25x Avg Cmax",+ve
same,HepaRG <100x Avg Cmaxu HCS,"[14]; HCS endpoints, cut-off <100x Avg Cmaxu",+ve (<100x Avg Cmaxu)
same,HepaRG <25x Avg Cmax All,"[14]; all endpoints (ATP and HCS), cut-off <25x Avg Cmax",+ve
same,HepaRG Cmax max All,"[14]; all endpoints, Cmax max used",+ve
same,HepaRG Cmax min All,"[14]; all endpoints, Cmax min used",-ve
same,HepaRG <10 uM All,"[14]; all endpoints, cut-off <10 uM",-ve
same,HepaRG <100x Avg Cmaxu All,"[14]; all endpoints, cut-off <100x Avg Cmaxu",+ve (<100x Avg Cmaxu)
same,AC50,[14]; read-out: ATP endpoint AC50,100 µM
same,minimal effective concentration,[14]; read-out: ATP endpoint MEC,53.2 µM
same,AC50,[14]; read-out: HCS endpoint AC50,174 µM
same,minimal effective concentration,[14]; read-out: HCS endpoint MEC,14.5 µM
same,Cluster 1-6 +VE Assay,[15],-VE
same,hLiMTs ATP <20 x Cmax,[16],+VE (IC20 < 20 × Cmax.tot cut-off)
same,"DILI in vitro assay prediction, Vorrink (2018)","[16]; PHH spheroids, ATP, 14 days, IC20 < 20 × Cmax.tot, ref Vorrink et al. 2018",+VE (IC20 < 20 × Cmax.tot cut-off)
same,DILI prediction hLiMTs (HCS-MEC),[17],+VE (MEC < 25 × Cmax.tot cut-off)
same,Cmax,[18],3.95 µM
same,hLiMTs ATP <100uM,[19]; [28],-VE
same,"hLiMTs/100uM, Proctor (2017)","[19]; hLiMTs, ATP, IC50 threshold 100 µM, ref Proctor et al. 2017",-VE
same,Structural based (HCI),"[20]; In vitro Assay, ref O'Brien 2006",+VE
same,"DILI in vitro assay prediction, O'Brien (2006)","[20]; Structural based (HCI), HepG2, ref O'Brien et al. 2006",+VE (lowest HCI endpoint IC50 (or in the absence of dose–response < 100 µM) < 30 × total human plasma exposure levels (Cmax.tot))
same,fu,[21],0.140
OCCOCCN1CCN(C(c2ccccc2)c2ccc(Cl)cc2)CC1 (stereo not shown) [hydroxyzine],Cytotoxicity PHH 48 hrs,[2],-VE
same,"DILI +VE (5-8), DILI -VE (-4)",[4]; ref Chen 2016,-VE
same,DILI severity category,[4]; ref Chen 2016,vNo-DILI-Concern
same,Cytotoxicity HepG2 48 hrs,[6],-VE
same,In vivo DILI,[7]; […],-VE
same,In vivo DILI,[7]; ref Albrecht 2019,-VE
same,In vivo DILI,[7]; ref Aleo 2019,-VE
same,Partition Hybrid HRM Score,"[8]; In vitro Assay, ref Aleo 2019",+VE
same,Ro2 Hybrid HRM Score,"[8]; In vitro Assay, ref Aleo 2019",+VE
C[C@H]1COc2c(N3CCN(C)CC3)c(F)cc3c(=O)c(C(=O)O)cn1c23 [levofloxacin],Cytotoxicity PHH 48 hrs,[2],+VE
same,Structural based (HCI),[3],-VE
same,Inhibition of rBsep cutoff<1& cmax u>.2,[22],-VE
same,Inhibition of rBsep cutoff<3,[22],-VE
same,"DILI +VE (5-8), DILI -VE (-4)",[4]; in vivo,+VE
same,DILI severity category,[4]; in vivo,vMost-DILI-Concern
same,Cellular toxicity (3T3 cells),[5],-VE
same,Combined Assay,[5],-VE
same,GSH adduct HML,[5],-VE
same,Hepatocyte cellular toxicity,[5],-VE
same,MitoTox 3T3,[5],-VE
same,TDI CYP3A4,[5],-VE
same,hBSEP inhibition,[5],-VE
same,Cytotoxicity HepG2 48 hrs,[6],+VE
same,THLE-Null,[23],-VE
CS(=O)(=O)Nc1ccc([N+](=O)[O-])cc1Oc1ccccc1 [nimesulide],Cytotoxicity PHH 48 hrs,[2],+VE
same,Bayesian Machine Learning,[24],+VE
same,in vitro data EC2<=1x Cmax,[25],+VE
same,"DILI +VE (5-8), DILI -VE (-4)",[4]; in vivo,+VE
same,DILI severity category,[4]; in vivo,vMost-DILI-Concern
same,PHH ATP <100uM,[11],+VE (key: +VE: IC50 threshold of 100 µM)
same,Cytotoxicity HepG2 48 hrs,[6],+VE
same,In vivo DILI,[7]; in vivo,+VE
same,Ro2 Hybrid HRM Score,[8],+VE
same,hLiMTs ATP <20 x Cmax,[16],+VE (IC20 < 20 × Cmax.tot cut-off)
same,hLiMTs ATP <100uM,[19],+VE (key: +VE: IC50 threshold of 100 µM)
same,Structural based (HCI),[20],+VE
CC(CN1c2ccccc2Sc2ccccc21)N(C)C (stereo not shown) [promethazine],Cytotoxicity PHH 48 hrs,[2],-VE
same,Structural based (HCI),[3],-VE
same,"DILI +VE (5-8), DILI -VE (-4)",[4]; ref Chen 2016,+VE
same,DILI severity category,[4]; ref Chen 2016,vLess-DILI-Concern
same,Cellular toxicity (3T3 cells),[5]; [26],+VE
same,Combined Assay,[5]; [26],-VE
same,GSH adduct HML,[5]; [26],+VE
same,Hepatocyte cellular toxicity,[5]; [26],-VE
same,MitoTox 3T3,[5]; [26],-VE
same,TDI CYP3A4,[5]; [26],-VE
same,hBSEP inhibition,[5]; [26],-VE
same,Cytotoxicity HepG2 48 hrs,[6],-VE
same,In vivo DILI,[7]; ref Albrecht 2019,-VE
same,In vivo DILI,[7]; ref Schadt 2015,-VE
same,In vivo DILI,[7]; ref Vorrink 2018,-VE
same,In vivo DILI,[7]; ref Xu 2008,-VE
same,hLiMTs ATP <20 x Cmax,[16],-VE
"CC(C)NCC(O)COc1cccc2ccccc12 (stereo not shown) [propranolol, reference compound]",Cytotoxicity PHH 48 hrs,[2],-VE
same,Inhibition of rBsep cutoff<1& cmax u>.2,[22],-VE
same,Inhibition of rBsep cutoff<3,[22],-VE
same,Cytotoxicity HepG2 48 hrs,[6],-VE
same,Ro2 Hybrid HRM Score,"[8]; In vitro Assay, ref Aleo 2019",-VE
same,Partition Hybrid HRM Score,[8],+VE
same,response of PHH spheroids at 5 × Cmax.tot,"[16]; ATP, 14 days, not positive at higher concentrations, ref Vorrink et al. 2018",positive
same,hLiMTs ATP <20 x Cmax,[16],-VE
